Measured values taken from ChEMBL document CHEMBL5335780, “The emerging role of mixed lineage kinase 3 (MLK3) and its potential as a target for neurodegenerative diseases therapies” (Eur J Med Chem, 2023).

How the values were obtained:
[1] = target: Mitogen-activated protein kinase kinase kinase 9 (Homo sapiens, UniProt P80192); test: Inhibition of MLK1 (unknown origin)
[2] = target: Mitogen-activated protein kinase kinase kinase 11 (Homo sapiens, UniProt Q16584); test: Inhibition of MLK3 (unknown origin)
Mitogen-activated protein kinase kinase kinase 11, sequence (Q16584 whole entry): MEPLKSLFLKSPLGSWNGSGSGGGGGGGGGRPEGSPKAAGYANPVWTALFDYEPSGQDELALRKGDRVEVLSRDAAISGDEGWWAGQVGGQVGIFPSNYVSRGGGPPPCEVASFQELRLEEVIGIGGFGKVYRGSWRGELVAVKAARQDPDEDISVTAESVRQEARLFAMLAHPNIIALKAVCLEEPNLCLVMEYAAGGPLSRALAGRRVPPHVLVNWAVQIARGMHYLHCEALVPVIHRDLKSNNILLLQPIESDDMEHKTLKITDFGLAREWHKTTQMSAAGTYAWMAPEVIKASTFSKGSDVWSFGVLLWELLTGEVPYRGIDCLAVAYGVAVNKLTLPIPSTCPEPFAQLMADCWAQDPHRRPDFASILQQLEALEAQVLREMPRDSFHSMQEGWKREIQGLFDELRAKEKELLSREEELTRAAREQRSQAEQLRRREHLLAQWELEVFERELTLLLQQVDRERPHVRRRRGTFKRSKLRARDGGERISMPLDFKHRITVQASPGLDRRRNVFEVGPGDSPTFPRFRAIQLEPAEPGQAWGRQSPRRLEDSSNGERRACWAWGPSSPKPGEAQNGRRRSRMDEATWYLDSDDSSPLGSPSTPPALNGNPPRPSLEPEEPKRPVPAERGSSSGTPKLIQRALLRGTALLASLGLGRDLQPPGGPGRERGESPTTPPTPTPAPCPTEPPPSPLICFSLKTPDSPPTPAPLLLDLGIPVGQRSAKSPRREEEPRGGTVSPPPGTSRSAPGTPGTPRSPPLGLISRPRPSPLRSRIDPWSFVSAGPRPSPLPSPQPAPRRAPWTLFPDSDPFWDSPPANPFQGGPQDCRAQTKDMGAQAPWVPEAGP

Mitogen-activated protein kinase kinase kinase 9, sequence (P80192 whole entry): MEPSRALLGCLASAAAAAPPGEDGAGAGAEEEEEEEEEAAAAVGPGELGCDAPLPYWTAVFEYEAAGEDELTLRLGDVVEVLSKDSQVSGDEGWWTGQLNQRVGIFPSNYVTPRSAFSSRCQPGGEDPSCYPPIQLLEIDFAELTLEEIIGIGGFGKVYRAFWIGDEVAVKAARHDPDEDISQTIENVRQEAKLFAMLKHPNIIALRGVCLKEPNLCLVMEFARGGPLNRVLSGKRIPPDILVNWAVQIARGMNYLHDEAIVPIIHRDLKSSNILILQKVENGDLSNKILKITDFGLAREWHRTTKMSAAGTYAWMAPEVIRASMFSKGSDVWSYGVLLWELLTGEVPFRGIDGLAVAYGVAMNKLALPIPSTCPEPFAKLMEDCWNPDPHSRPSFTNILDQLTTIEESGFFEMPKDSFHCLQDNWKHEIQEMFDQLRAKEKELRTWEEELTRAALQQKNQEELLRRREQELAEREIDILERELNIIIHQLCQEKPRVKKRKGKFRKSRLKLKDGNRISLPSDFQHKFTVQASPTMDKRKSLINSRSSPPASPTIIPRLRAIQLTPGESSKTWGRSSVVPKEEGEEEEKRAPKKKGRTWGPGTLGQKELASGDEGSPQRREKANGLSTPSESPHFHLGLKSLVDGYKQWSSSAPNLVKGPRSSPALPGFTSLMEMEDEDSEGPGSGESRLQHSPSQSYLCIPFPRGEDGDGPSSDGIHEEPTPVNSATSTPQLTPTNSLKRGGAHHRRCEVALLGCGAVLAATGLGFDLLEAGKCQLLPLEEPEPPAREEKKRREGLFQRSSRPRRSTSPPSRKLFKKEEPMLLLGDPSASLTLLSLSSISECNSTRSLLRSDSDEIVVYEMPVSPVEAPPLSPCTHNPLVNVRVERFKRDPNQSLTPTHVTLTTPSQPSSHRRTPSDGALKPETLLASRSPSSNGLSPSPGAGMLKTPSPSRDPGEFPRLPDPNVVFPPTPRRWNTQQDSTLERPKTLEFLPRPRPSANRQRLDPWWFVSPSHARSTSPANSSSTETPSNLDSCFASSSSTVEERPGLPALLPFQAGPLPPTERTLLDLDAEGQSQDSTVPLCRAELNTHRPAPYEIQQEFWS

IC50 [1]: 44.7 nM
IC50 [2]: 23.7 nM
SMILES: OCCN1CCN(Cc2ccc(-c3cnc4[nH]cc(-c5cccc(Cl)c5)c4c3)cc2)CC1
